Source: EP0417165B1, “POLYPEPTIDE COMPOUNDS HAVING GROWTH HORMONE RELEASING ACTIVITY” (POLYGEN HOLDING CORPORATION, priority 1988, dated 1994)
Non-standard residues stand in square brackets, D forms with d. Residues, ends and D or L forms follow the SMILES beside them.

Tested on: GH Release
Assay: In vivo GH release in pentobarbital anesthetized rats (serum GH by RIA)
Design: species or system Sprague-Pawley rats
Details: sacrificed 10 minutes after injection, mean ± SEM, six rats
Experimental: Immature female Sprague-Pawley rats were obtained from the Charles River Laboratories (Wilmington, MA). After arrival they were housed at 25° C with a 14:10 hr light:dark cycle. Water and Purina rat chow were available ad libitum. Pups were kept with their mothers until 21 days of age.
Normal saline with 0.1% gelatin was the vehicle for intravenous (i.v.) injections of the peptides. The anesthetized rats, weighing 55-65 grams, were injected i.v. with the quantity of growth hormone releasing compounds indicated in Table 3. Injection was made as a 0.1 mL solution into the jugular vein.
All animals were sacrificed by guillotine 10 minutes after the final test injection (see Table 3). Trunk blood for the determination of blood GH levels was collected following decapitation. After allowing the blood to clot, it was centrifuged and the serum was separated from the clot. Serum was kept frozen until the day of sampling for radioimmunoassay (RIA) determination of growth hormone levels according to the following procedure, as developed by the National Institute of Arthritis, Diabetes and Digestive and Kidney Diseases (NIADDK).
Reagents are generally added to the RIA analysis tubes at a single sitting, at refrigerator temperature (about 4°C) in the following sequence: • (a) buffer, • (b) "cold" (i.e., non-radioactive) standard or unknown serum sample to be analyzed, • (c) radio-iodinated growth hormone antigen, and • (d) growth hormone antiserum. Reagent addition is generally carried out so that there is achieved a final RIA tube dilution of about 1:30,000 (antiserum to total liquid volume; vol:vol).
The mixed reagents are then typically incubated at room temperature (about 25°C) for about 24 hours prior to addition of a second antibody (e.g., goat or rabbit anti-monkey gamma globulin serum) which binds to and causes precipitation of the complexed growth hormone antiserum. Precipitated contents of the RIA tubes are then analyzed for the number of counts in a specified period of time in a gamma scintillation counter. A standard curve is prepared by plotting number of radioactive counts versus growth hormone (GH) level. GH levels of unknowns are then determined by reference to the standard curve.
Serum GH was measured by RIA with reagents provided by the National Hormone and Pituitary Program.
Serum levels in Table 3 are recorded in ng/mL in terms of the rat GH standard of 0.61 International Units/mg (IU/mg). Data is recorded as the mean +/-standard error of the mean (SEM). Statistical analysis was performed with Student's t-test. In Table 3 the results shown are the average of studies with six rats.

[1] = Total Dose 0.3 µg i.v., 26 day old female rats, study with Control GH 142±43
[2] = Total Dose 0.3 µg i.v., 26 day old female rats, study with Control GH 208±47
[3] = Total Dose 1.0 µg i.v., 26 day old female rats, study with Control GH 142±43
[4] = Total Dose 1.0 µg i.v., 26 day old female rats, study with Control GH 208±47
[5] = Total Dose 1.0 µg i.v., 29 day old female rats, study with Control GH 108±17
[6] = Total Dose 3.0 µg i.v., 26 day old female rats, study with Control GH 142±43
[7] = Total Dose 3.0 µg i.v., 26 day old female rats, study with Control GH 208±47
[8] = Total Dose 3.0 µg i.v., 29 day old female rats, study with Control GH 108±17

SMILES	GH Released by Compound in Column A (Total Dose 0.3 µg i.v., 26 day old female rats, study with Control GH 151±16) [ng/mL]	GH Released by Compound in Column A (Total Dose 1.0 µg i.v., 26 day old female rats, study with Control GH 151±16) [ng/mL]	GH Released by Compound in Column A (Total Dose 3.0 µg i.v., 26 day old female rats, study with Control GH 111±25) [ng/mL]	GH Released by Compound in Column A (Total Dose 3.0 µg i.v., 26 day old female rats, study with Control GH 151±16) [ng/mL]	GH Released by Compound in Column A [1] [ng/mL]	GH Released by Compound in Column A [2] [ng/mL]	GH Released by Compound in Column A [3] [ng/mL]	GH Released by Compound in Column A [4] [ng/mL]	GH Released by Compound in Column A [5] [ng/mL]	GH Released by Compound in Column A [6] [ng/mL]	GH Released by Compound in Column A [7] [ng/mL]	GH Released by Compound in Column A [8] [ng/mL]	GH Released by Compound in Column A (Total Dose 10.0 µg i.v., 26 day old female rats, study with Control GH 142±43) [ng/mL]	GH Released by Compound in Column A (Total Dose 10.0 µg i.v., 29 day old female rats, study with Control GH 108±17) [ng/mL]	GH Released by Compound in Column A (Total Dose 30.0 µg i.v., 26 day old female rats, study with Control GH 142±43) [ng/mL]	GH Released by Compound in Column A (Total Dose 0.3 µg i.v., 29 day old female rats, study with Control GH 108±17) [ng/mL]
C[C@H](NC(=O)[C@@H](N)Cc1c[nH]cn1)C(=O)N[C@H](Cc1c[nH]c2ccccc12)C(=O)N[C@@H](C)C(=O)N[C@@H](Cc1c[nH]c2ccccc12)C(=O)N[C@H](Cc1ccccc1)C(=O)N[C@@H](CCCCN)C(N)=O [His-Ala-DTrp-Ala-Trp-DPhe-Lys-NH₂] (H-HA[dW]AW[dF]K-NH2)	261 ± 32	830 ± 103	2588 ± 341	2365 ± 478	–	–	–	–	–	–	–	–	–	–	–	–
C[C@H](N)C(=O)N[C@H](Cc1c[nH]c2ccccc12)C(=O)N[C@@H](C)C(=O)N[C@@H](Cc1c[nH]c2ccccc12)C(=O)N[C@H](Cc1ccccc1)C(=O)N[C@@H](CCCCN)C(N)=O [Ala-DTrp-Ala-Trp-DPhe-Lys-NH₂] (H-A[dW]AW[dF]K-NH2)	–	–	–	–	303 ± 41	265 ± 96	729 ± 115	754 ± 164	745 ± 68	1164 ± 215	1449 ± 238	1673 ± 352	2353 ± 149	2388 ± 269	2484 ± 110	–
C[C@H](NC(=O)[C@@H](Cc1c[nH]c2ccccc12)NC(=O)[C@@H](N)Cc1c[nH]cn1)C(=O)N[C@@H](Cc1c[nH]c2ccccc12)C(=O)N[C@H](Cc1ccccc1)C(=O)N[C@@H](CCCCN)C(N)=O [His-DTrp-Ala-Trp-DPhe-Lys-NH₂] (H-H[dW]AW[dF]K-NH2)	–	–	–	–	533 ± 77	660 ± 128	1656 ± 213	1669 ± 257	2614 ± 349	2653 ± 378	3078 ± 629	3215 ± 547	–	–	–	764 ± 62
